Source: US20230301300A1, “HERBICIDAL COMPOSITIONS” (SYNGENTA CROP PROTECTION AG, priority 2020, published 2023)

Assays:
Assay type in all cases: in vivo
[1] = tested on: Amaranthus retoflexus (AMARE); test: B1 Post-Emergence Efficacy - Test 1; conditions: 1000 g/ha, after 13 days, five point scale
Procedure: (§1) Seeds of a variety of test species are sown in standard soil in pots:— Solanum nigrum (SOLNI), Amaranthus retoflexus (AMARE), Setaria faberi (SETFA), Alopecurus myosuroides (ALOMY), Echinochloa crus-galli (ECHCG), Ipomoea hederacea (IPOHE), Lolium perenne (LOLPE). After 8 days cultivation (post-emergence) under controlled conditions in a glasshouse (at 24/16° C., day/night; 14 hours light; 65% humidity), the plants are sprayed with an aqueous spray solution derived from the formulation of the technical active ingredient in acetone/water (50:50) solution containing 0.5% Tween 20 (polyoxyethylene sorbitan monolaurate, CAS RN 9005-64-5). Compounds are applied at 1000 g/ha. The test plants are then grown in a glasshouse under controlled conditions in a glasshouse (at 24/16° C., day/night; 14 hours light; 65% humidity) and watered twice daily. After 13 days, the test is evaluated for the percentage damage caused to the plant. The biological activities are assessed on a five point scale (5=80-100%; 4=60-79%; 3=40-59%; 2=20-39%; 1=0-19%). A blank value in the table is indicative that the compound was not tested on that species.

[2] = tested on: Echinochloa crus-galli (ECHCG); test: B1 Post-Emergence Efficacy - Test 1; conditions: 1000 g/ha, after 13 days, five point scale
Procedure: as §1

[3] = tested on: Ipomoea hederacea (IPOHE); test: B1 Post-Emergence Efficacy - Test 1; conditions: 1000 g/ha, after 13 days, five point scale
Procedure: as §1

Lolium perenne (LOLPE) = test: B1 Post-Emergence Efficacy - Test 1; conditions: 1000 g/ha, after 13 days, five point scale
Procedure: as §1

Setaria faberi (SETFA) [4] = test: B1 Post-Emergence Efficacy - Test 1; conditions: 1000 g/ha, after 13 days, five point scale
Procedure: as §1

Solanum nigrum (SOLNI) = test: B1 Post-Emergence Efficacy - Test 1; conditions: 1000 g/ha, after 13 days, five point scale
Procedure: as §1

[5] = tested on: Abutilon theophrasti (ABUTH); test: B3 Herbicidal Efficacy of Compounds of Formula (II), post-emergence; conditions: 312 h, application post-emergence, after 13 days, 100=total damage, 0=no damage, read-out: percentage phytotoxicity to the plant, ABUTH
Procedure: (§2) Seeds of a variety of test species [Ipomoea hederacea (IPOHE); Zea mays (ZEAMX); Echinochloa crus-galli (ECHCG); Setaria faberi (SETFA); Abutilon theophrasti (ABUTH); Amaranthus retroflexus (AMARE)] were sown in standard sterilised soil in pots. After cultivation for one day (pre-emergence) or after 8 days cultivation (post-emergence) under controlled conditions in a glasshouse (at 24/16° C., day/night; 14 hours light; 65% humidity), the plants were sprayed with an aqueous spray solution derived from the formulation of the technical active ingredient in acetone/water (50:50) solution containing 0.5% Tween 20 (polyoxyethelyene sorbitan monolaurate, CAS RN 9005-64-5), subsequently diluted in water, and sprayed to give the stated application rate. The test plants were then grown under controlled conditions in a glasshouse (at 24/16° C., day/night; 14 hours light; 65% humidity) and watered twice daily. After 13 days for pre and post-emergence, the test was evaluated visually for percentage phytotoxicity to the plant (where 100=total damage to plant; 0=no damage to plant).

[6] = tested on: Amaranthus retroflexus (AMARE); test: as above; conditions: 312 h, application post-emergence, after 13 days, 100=total damage, 0=no damage, read-out: percentage phytotoxicity to the plant, AMARE
Procedure: as §2

[7] = tested on: Echinochloa crus-galli (ECHCG); test: as above; conditions: 312 h, application post-emergence, after 13 days, 100=total damage, 0=no damage, read-out: percentage phytotoxicity to the plant, ECHCG
Procedure: as §2

[8] = tested on: Ipomoea hederacea (IPOHE); test: as above; conditions: 312 h, application post-emergence, after 13 days, 100=total damage, 0=no damage, read-out: percentage phytotoxicity to the plant, IPOHE
Procedure: as §2

Setaria faberi (SETFA) [9] = test: as above; conditions: 312 h, application post-emergence, after 13 days, 100=total damage, 0=no damage, read-out: percentage phytotoxicity to the plant, SETFA
Procedure: as §2

Zea mays (ZEAMX) [10] = test: as above; conditions: 312 h, application post-emergence, after 13 days, 100=total damage, 0=no damage, read-out: percentage phytotoxicity to the plant, ZEAMX
Procedure: as §2

[11] = tested on: Abutilon theophrasti (ABUTH); test: B3 Herbicidal Efficacy of Compounds of Formula (II), pre-emergence; conditions: 312 h, application pre-emergence, after 13 days, 100=total damage, 0=no damage, read-out: percentage phytotoxicity to the plant, ABUTH
Procedure: as §2

[12] = tested on: Amaranthus retroflexus (AMARE); test: as above; conditions: 312 h, application pre-emergence, after 13 days, 100=total damage, 0=no damage, read-out: percentage phytotoxicity to the plant, AMARE
Procedure: as §2

[13] = tested on: Echinochloa crus-galli (ECHCG); test: as above; conditions: 312 h, application pre-emergence, after 13 days, 100=total damage, 0=no damage, read-out: percentage phytotoxicity to the plant, ECHCG
Procedure: as §2

[14] = tested on: Ipomoea hederacea (IPOHE); test: as above; conditions: 312 h, application pre-emergence, after 13 days, 100=total damage, 0=no damage, read-out: percentage phytotoxicity to the plant, IPOHE
Procedure: as §2

Setaria faberi (SETFA) [15] = test: as above; conditions: 312 h, application pre-emergence, after 13 days, 100=total damage, 0=no damage, read-out: percentage phytotoxicity to the plant, SETFA
Procedure: as §2

Zea mays (ZEAMX) [16] = test: as above; conditions: 312 h, application pre-emergence, after 13 days, 100=total damage, 0=no damage, read-out: percentage phytotoxicity to the plant, ZEAMX
Procedure: as §2

Structure (SMILES)	percentage damage caused to the plant, AMARE [1]	percentage damage caused to the plant, ECHCG [2]	percentage damage caused to the plant, IPOHE [3]	percentage damage caused to the plant, LOLPE (Lolium perenne (LOLPE))	percentage damage caused to the plant, SETFA (Setaria faberi (SETFA) [4])	percentage damage caused to the plant, SOLNI (Solanum nigrum (SOLNI))	pest or weed control at 250 g/ha [5]	pest or weed control at 250 g/ha [6]	pest or weed control at 250 g/ha [7]	pest or weed control at 250 g/ha [8]	pest or weed control at 250 g/ha (Setaria faberi (SETFA) [9])	percent crop injury (phytotoxicity to maize) at 250 g/ha (Zea mays (ZEAMX) [10])	pest or weed control at 250 g/ha [11]	pest or weed control at 250 g/ha [12]	pest or weed control at 250 g/ha [13]	pest or weed control at 250 g/ha [14]	pest or weed control at 250 g/ha (Setaria faberi (SETFA) [15])	plant injury at 250 g/ha (Zea mays (ZEAMX) [16])
Cc1nn(C)c(=O)c(-c2c(F)ccc(Cl)c2CCc2ccccc2)c1O [Compound 1.001, 4-(3-chloro-6-fluoro-2-phenethyl-phenyl)-5-hydroxy-2,6-dimethyl-pyridazin-3-one]	5 (5=80-100%)	5 (5=80-100%)	5 (5=80-100%)	5 (5=80-100%)	5 (5=80-100%)	5 (5=80-100%)	–	–	–	–	–	–	–	–	–	–	–	–
Cc1nn(C)c(=O)c(-c2c(F)ccc(Cl)c2/C=C/c2ccccc2)c1O [Compound 1.002, 4-[3-chloro-6-fluoro-2-[(E)-styryl]phenyl]-5-hydroxy-2,6-dimethyl-pyridazin-3-one]	4 (4=60-79%)	4 (4=60-79%)	5 (5=80-100%)	4 (4=60-79%)	3 (3=40-59%)	5 (5=80-100%)	–	–	–	–	–	–	–	–	–	–	–	–
Cc1nn(C)c(=O)c(-c2c(F)ccc(Cl)c2CCc2ccc(Cl)cc2)c1O [Compound 1.012, 4-[3-chloro-2-[2-(4-chlorophenyl)ethyl]-6-fluoro-phenyl]-5-hydroxy-2,6-dimethyl-pyridazin-3-one]	5 (5=80-100%)	5 (5=80-100%)	5 (5=80-100%)	5 (5=80-100%)	5 (5=80-100%)	5 (5=80-100%)	–	–	–	–	–	–	–	–	–	–	–	–
Cc1nn(C)c(=O)c(-c2c(F)ccc(Cl)c2CCc2ccc(C(F)(F)F)cc2)c1O [Compound 1.018, 4-[3-chloro-6-fluoro-2-[2-[4-(trifluoromethyl)phenyl]ethyl]phenyl]-5-hydroxy-2,6-dimethyl-pyridazin-3-one]	5 (5=80-100%)	5 (5=80-100%)	5 (5=80-100%)	5 (5=80-100%)	5 (5=80-100%)	5 (5=80-100%)	–	–	–	–	–	–	–	–	–	–	–	–
Cc1nn(C)c(=O)c(-c2c(F)ccc(Cl)c2CCc2cccnc2)c1O [Compound 1.054, 4-[3-chloro-6-fluoro-2-[2-(3-pyridyl)ethyl]phenyl]-5-hydroxy-2,6-dimethyl-pyridazin-3-one]	5 (5=80-100%)	5 (5=80-100%)	5 (5=80-100%)	5 (5=80-100%)	5 (5=80-100%)	5 (5=80-100%)	–	–	–	–	–	–	–	–	–	–	–	–
Cc1nn(C)c(=O)c(-c2c(F)ccc(Cl)c2CCc2ccc(F)c(F)c2)c1O [Compound 1.060, 4-[3-chloro-2-[2-(3,4-difluorophenyl)ethyl]-6-fluoro-phenyl]-5-hydroxy-2,6-dimethyl-pyridazin-3-one]	5 (5=80-100%)	5 (5=80-100%)	5 (5=80-100%)	5 (5=80-100%)	5 (5=80-100%)	5 (5=80-100%)	–	–	–	–	–	–	–	–	–	–	–	–
Cc1nn(C)c(=O)c(-c2c(F)ccc(Cl)c2CCc2ccc(C(F)(F)F)cc2)c1OC(=O)C(C)C [Compound 1.095, [5-[3-chloro-6-fluoro-2-[2-[4-(trifluoromethyl)phenyl]ethyl]phenyl]-1,3-dimethyl-6-oxo-pyridazin-4-yl] 2-methylpropanoate]	5 (5=80-100%)	5 (5=80-100%)	5 (5=80-100%)	5 (5=80-100%)	–	5 (5=80-100%)	–	–	–	–	–	–	–	–	–	–	–	–
Cc1ccc(CCc2c(Cl)ccc(F)c2-c2c(OC(=O)C(C)C)c(C)nn(C)c2=O)cc1 [Compound 1.149, [5-[3-chloro-6-fluoro-2-[2-(p-tolyl)ethyl]phenyl]-1,3-dimethyl-6-oxo-pyridazin-4-yl] 2-methylpropanoate]	5 (5=80-100%)	5 (5=80-100%)	5 (5=80-100%)	5 (5=80-100%)	5 (5=80-100%)	5 (5=80-100%)	–	–	–	–	–	–	–	–	–	–	–	–
CN1C[C@H](c2cc(C(F)(F)F)n(C)n2)[C@@H](C(=O)Nc2cccc(F)c2C(C)(F)F)C1=O [Compound 2.12, (3S,4R)-N-[2-(1,1-difluoroethyl)-3-fluoro-phenyl]-1-methyl-4-[1-methyl-5-(trifluoromethyl)pyrazol-3-yl]-2-oxo-pyrrolidine-3-carboxamide]	–	–	–	–	–	–	0%	0%	90%	50%	90%	80%	0%	0%	90%	70%	90%	90%
